Patent publication US20130251632A1, “APOPTOSIS PET IMAGING AGENTS” (GE HEALTHCARE LIMITED, priority 2010, published 2013)

Experiment: Affinity for phosphatidylethanolamine, Biacore 3000 with L1 chip and captured liposomes
Type: binding
Details: POPE/POPC liposomes (20% PE)
Excerpt: A Biacore 3000 (GE Healthcare, Uppsala) was equipped with an L1 chip. Liposomes made of POPE/POPC (20% PE) were applied for the affinity study using the capture technique recommended by the manufacturer. Each run consisted of activation of the chip surface, immobilization of liposomes, binding of peptide and wash off of both liposomes and peptide (regeneration). Similar applications can be found in Frostell-Karlsson et al [Pharm. Sciences, V.94 (1), (2005)]. Thorough washing of needle, tubing and liquid handling system with running buffer was performed after each cycle.
BIACORE software: The BIACORE control software including all method instructions was applied. A method with commands was also written in the BIACORE Method Definition Language (MDL) to have full control over pre-programmed instructions. BIACORE evaluation software was applied for analysing the sensorgrams.

duramycin
ka: ~20000 M⁻¹ s⁻¹
